Test results published in patent publication US8415342B2, “Besifloxacin ophthalmic composition for the treatment or control of infection” (Bausch & Lomb Incorporated, priority 2008, dated 2013).

Experiments:
Format in all cases: cell-based
S. epidermidis = test: MIC of clinical trial isolates, Studies 373, 433, 434; details: Staphylococcus epidermidis, all phenotypes, N 111
[1] = system: baseline pathogens of bacterial conjunctivitis patients; test: MIC of baseline clinical trial isolates, Studies 373, 433, 434 (all species)
[2] = system: Corynebacterium pseudodiphtheriticum; test: MIC of clinical trial isolates, Studies 373, 433, 434; details: N 8
S. pneumoniae = test: as above; details: Streptococcus pneumoniae, all phenotypes, N 302
Description: (§1) PFGE testing was performed per standard procedures.
(§2) The antibacterial susceptibility profile of each Visit 1 bacterial isolate was determined for besifloxacin and other antimicrobials.

CDC coryneform group G = test: as above; details: N 29
Description: as §1, §2

S. mitis group = test: as above; details: Streptococcus mitis group, N 45
Description: as §1, §2

Streptococcus oralis = test: as above; details: N 18
Description: as §1, §2

H. influenzae = test: as above; details: Haemophilus influenzae, all phenotypes, N 344
Description: as §1, §2

[3] = system: Staphylococcus lugdunensis; test: as above; details: N 8
Streptococcus mitis = test: as above; details: Streptococcus mitis (listed separately from S. mitis group), N 20
Description: PFGE testing was performed per standard procedures. […] Analysis Populations

S. aureus = test: as above; details: Staphylococcus aureus, all phenotypes, N 190
Staphylococcus hominis = test: as above; details: N 9
Streptococcus salivarius = test: as above; details: N 9
Corynebacterium striatum = test: as above; details: N 8

CC[C@H]1OC(=O)[C@H](C)[C@@H](O[C@H]2C[C@@](C)(OC)[C@@H](O)[C@H](C)O2)[C@H](C)[C@@H](O[C@@H]2O[C@H](C)C[C@H](N(C)C)[C@H]2O)[C@](C)(O)C[C@@H](C)CN(C)[C@H](C)[C@@H](O)[C@]1(C)O [AZITH] was tested, and the MIC50 (S. epidermidis) was 1 µg/mL, the MIC90 (S. epidermidis) was >8 µg/mL and the MIC50 ([1]; All organisms, N 1324) was 2 µg/mL. The MIC90 ([1]; All organisms, N 1324) was >8 µg/mL, the MIC50 ([1]; Gram-negative, N 438) was 2 µg/mL and the MIC90 ([1]; Gram-negative, N 438) was >8 µg/mL. The MIC50 ([1]; Gram-positive, N 886) was 1 µg/mL, the MIC90 ([1]; Gram-positive, N 886) was >8 µg/mL and the MIC50 [2] was >8 µg/mL. The MIC90 (S. pneumoniae) was >8 µg/mL, the MIC90 (CDC coryneform group G) was >8 µg/mL and the MIC50 (S. mitis group) was 2 µg/mL. The MIC90 (S. mitis group) was 8 µg/mL, the MIC50 (Streptococcus oralis) was 4 µg/mL and the MIC90 (Streptococcus oralis) was >8 µg/mL. It also gave an MIC50 (H. influenzae) of 2 µg/mL, an MIC90 (H. influenzae) of 4 µg/mL and an MIC50 [3] of 0.5 µg/mL. The MIC50 (Streptococcus mitis) was 2 µg/mL, the MIC90 (Streptococcus mitis) was 4 µg/mL and the “MIC Range” value (Streptococcus mitis) was 0.06 to 8 µg/mL. For the same compound, the MIC50 (S. aureus) was 2 µg/mL, the MIC90 (S. aureus) was >8 µg/mL and the MIC50 (Staphylococcus hominis) was 4 µg/mL. The MIC50 (Streptococcus salivarius) was 8 µg/mL.
For N[C@@H]1CCCCN(c2c(F)cc3c(=O)c(C(=O)O)cn(C4CC4)c3c2Cl)C1 [BESI], the MIC50 (S. epidermidis) was 0.06 µg/mL, the MIC90 (S. epidermidis) was 0.5 µg/mL and the “MIC Range” value (S. epidermidis) was 0.03 to 4 µg/mL. The MIC50 (Corynebacterium striatum) was 0.015 µg/mL, the “MIC Range” value (Corynebacterium striatum) was 0.015 to 0.25 µg/mL and the MIC50 ([1]; All organisms, N 1324) was 0.06 µg/mL. The MIC90 ([1]; All organisms, N 1324) was 0.25 µg/mL, the “MIC Range” value ([1]; All organisms, N 1324) was 0.008 to 8 µg/mL and the MIC50 ([1]; Gram-negative, N 438) was 0.03 µg/mL. For the same compound, the MIC90 ([1]; Gram-negative, N 438) was 0.5 µg/mL, the “MIC Range” value ([1]; Gram-negative, N 438) was 0.008 to 8 µg/mL and the MIC50 ([1]; Gram-positive, N 886) was 0.06 µg/mL. For the same compound, the MIC90 ([1]; Gram-positive, N 886) was 0.25 µg/mL, the “MIC Range” value ([1]; Gram-positive, N 886) was 0.008 to 8 µg/mL and the MIC50 [2] was 0.25 µg/mL. For the same compound, the “MIC Range” value [2] was 0.015 to 0.25 µg/mL, the MIC50 (S. pneumoniae) was 0.06 µg/mL and the MIC90 (S. pneumoniae) was 0.125 µg/mL. For the same compound, the “MIC Range” value (S. pneumoniae) was 0.03 to 0.25 µg/mL, the MIC50 (CDC coryneform group G) was 0.015 µg/mL and the MIC90 (CDC coryneform group G) was 0.125 µg/mL. The “MIC Range” value (CDC coryneform group G) was 0.008 to 2 µg/mL, the MIC50 (S. mitis group) was 0.125 µg/mL and the MIC90 (S. mitis group) was 0.25 µg/mL. The “MIC Range” value (S. mitis group) was 0.03 to 1 µg/mL, the MIC50 (Streptococcus oralis) was 0.125 µg/mL and the MIC90 (Streptococcus oralis) was 0.25 µg/mL. For the same compound, the “MIC Range” value (Streptococcus oralis) was 0.015 to 0.25 µg/mL, the MIC50 (H. influenzae) was 0.03 µg/mL and the MIC90 (H. influenzae) was 0.06 µg/mL. The “MIC Range” value (H. influenzae) was 0.008 to 0.5 µg/mL, the MIC50 [3] was 0.125 µg/mL and the “MIC Range” value [3] was 0.06 to 0.5 µg/mL. The MIC50 (Streptococcus mitis) was 0.125 µg/mL, the MIC90 (Streptococcus mitis) was 0.125 µg/mL and the “MIC Range” value (Streptococcus mitis) was 0.06 to 0.25 µg/mL. For the same compound, the MIC50 (S. aureus) was 0.03 µg/mL, the MIC90 (S. aureus) was 0.5 µg/mL and the “MIC Range” value (S. aureus) was 0.008 to 8 µg/mL. The MIC50 (Staphylococcus hominis) was 0.06 µg/mL, the “MIC Range” value (Staphylococcus hominis) was 0.03 to 0.5 µg/mL and the MIC50 (Streptococcus salivarius) was 0.125 µg/mL. The “MIC Range” value (Streptococcus salivarius) was 0.06 to 0.25 µg/mL.
